Results published in patent US20220064138A1, “MACROLIDE BREFELDIN A ESTER DERIVATIVES AND USE THEREOF” (OCEAN UNIVERSITY OF CHINA, priority 2019, published 2022).

Key:
Assay in all cases: Cell proliferation assay (CCK-8)
Format in all cases: cell-based
[1] = tested on: Human cervical cancer Hela cells; details: 72 h
Text: (§1) CCK-8 method: The CCK-8 method is a highly sensitive, non-radioactive colorimetric assay for the determination of the number of viable cells in cell proliferation or cytotoxicity assays. The orange formazan dye produced by the bioreduction of CCK-8 by intracellular dehydrogenase is soluble in the cell culture medium, and the amount of formazan dye produced is proportional to the number of living cells. The kit used in this method is the tetrazolium salt-WST-8 (2-(2-methoxy-4-nitrophenyl)-3-(4-nitrophenyl)-5-(2,4-disulfophenyl)-2H-tetrazolium monosodium salt) developed by Dojindo Chemical Research Institute (Dojindo), which is capable of being reduced to a water-soluble formazan dye in the presence of the electronic carrier 1-Methoxy PMS.
(§2) Human cervical cancer Hela cells, pancreatic cancer PANC-1 cells, esophageal cancer Eca-109 cells, human leukemia K562 cells, human lung cancer A549 cells, human liver cancer HepG2 cells, human gastric cancer MKN-45 cells, human breast cancer MCF7 cells were cultured in DMEM medium containing 10% FBS (fetal bovine serum), 100 U/mL penicillin and 100 μg/ml streptomycin. Hepatocellular carcinoma cells Bel-7402 were cultured in RPMI-1640 medium containing 10% FBS (fetal bovine serum), 100 U/ml penicillin and 100 μg/ml streptomycin. All cells were placed in a cell culture incubator at 37° C. with 5% CO2. Cells fluid was changed every 3-5 days, and after 80% cell fusion, trypsin digestion and passaging were performed to keep the cells in good logarithmic growth phase.
(§3) All the samples to be tested were dissolved in DMSO.
(§4) Cells in logarithmic growth phase were inoculated in 96-well plates with 5000 cells/well respectively, and after 24 h of incubation, samples were added (final concentrations as shown in the table), and biplicate wells were set up for each sample. The amount of solvent of DMSO was not higher than 2‰. After 72 h, 10 μL of CCK-8 solution was added to each well and incubated for 1.5˜3 h at 37° C. The OD value at 450 nm was measured on an plate reader.
(§5) Inhibition rate (%)=(1−[(OD450 dosed well−OD450 blank well)/(OD450 control well−OD450 blank well)])×100%
(§6) The fitted IC50 values were calculated using the log (inhibitor) vs. response-Variable slop analysis method in GraphPad Prism software.

[2] = tested on: esophageal cancer Eca-109 cells; details: Homo sapiens, Eca-109, 72 h
Text: as §1, §2, §3, §4, §5, §6

[3] = tested on: human breast cancer MCF7 cells; details: MCF7, 72 h
Text: as §1, §2, §3, §4, §5, §6

[4] = tested on: human gastric cancer MKN-45 cells; details: MKN-45, 72 h
Text: as §1, §2, §3, §4, §5, §6

[5] = tested on: human leukemia K562 cells; details: K562, 72 h
Text: as §1, §2, §3, §4, §5, §6

[6] = tested on: human liver cancer HepG2 cells; details: HepG2, 72 h
Text: as §1, §2, §3, §4, §5, §6

[7] = tested on: human lung cancer A549 cells; details: A549, 72 h
Text: as §1, §2, §3, §4, §5, §6

[8] = tested on: pancreatic cancer PANC-1 cells; details: Homo sapiens, PANC-1, 72 h
Text: as §1, §2, §3, §4, §5, §6

| Structure (SMILES) | IC50 [1] [nM] | IC50 [2] [nM] | IC50 [3] [nM] | IC50 [4] [nM] | IC50 [5] [nM] | IC50 [6] [nM] | IC50 [7] [nM] | IC50 [8] [nM] |
| --- | --- | --- | --- | --- | --- | --- | --- | --- |
| C[C@H]1CCC/C=C/[C@@H]2C[C@H](OC(=O)/C=C/c3ccccc3F)C[C@H]2[C@H](O)/C=C/C(=O)O1 [Compound 2a, 7-O-(2-fluorocinnamic acid)acyl BFA] | 1000 to 10000 | 1000 to 10000 | 100 to 1000 | 100 to 1000 | 100 to 1000 | 100 to 1000 | 100 to 1000 | 100 to 1000 |
| C[C@H]1CCC/C=C/[C@@H]2C[C@H](O)C[C@H]2[C@H](OC(=O)/C=C/c2ccccc2F)/C=C/C(=O)O1 [Compound 2b, 4-O-(2-fluorocinnamic acid)acyl BFA] | 1000 to 10000 | 1000 to 10000 | 100 to 1000 | 100 to 1000 | 100 to 1000 | 100 to 1000 | 100 to 1000 | 100 to 1000 |
| C[C@H]1CCC/C=C/[C@@H]2C[C@H](OC(=O)/C=C/c3ccccc3F)C[C@H]2[C@H](OC(=O)/C=C/c2ccccc2F)/C=C/C(=O)O1 [Compound 2c, 4,7-O-bis(2-fluorocinnamic acid)acyl BFA] | 1000 to 10000 | 1000 to 10000 | 1000 to 10000 | 100 to 1000 | 100 to 1000 | 1000 to 10000 | 1000 to 10000 | 1000 to 10000 |
| C[C@H]1CCC/C=C/[C@@H]2C[C@H](OC(=O)/C=C/c3ccc(F)cc3)C[C@H]2[C@H](O)/C=C/C(=O)O1 [Compound 3a, 7-O-(4-fluorocinnamic acid)acyl BFA] | 1000 to 10000 | 1000 to 10000 | 100 to 1000 | 100 to 1000 | 100 to 1000 | 100 to 1000 | 100 to 1000 | 100 to 1000 |
| C[C@H]1CCC/C=C/[C@@H]2C[C@H](O)C[C@H]2[C@H](OC(=O)/C=C/c2ccc(F)cc2)/C=C/C(=O)O1 [Compound 3b, 4-O-(4-fluorocinnamic acid)acyl BFA] | 100 to 1000 | 1000 to 10000 | 100 to 1000 | 100 to 1000 | 100 to 1000 | 100 to 1000 | 100 to 1000 | 100 to 1000 |
| C[C@H]1CCC/C=C/[C@@H]2C[C@H](OC(=O)/C=C/c3ccc(F)cc3)C[C@H]2[C@H](OC(=O)/C=C/c2ccc(F)cc2)/C=C/C(=O)O1 [Compound 3c, 4,7-O-bis(4-fluorocinnamic acid)acyl BFA] | 1000 to 10000 | 1000 to 10000 | 1000 to 10000 | 1000 to 10000 | 1000 to 10000 | 1000 to 10000 | 100 to 1000 | 100 to 1000 |
| C[C@H]1CCC/C=C/[C@@H]2C[C@H](OC(=O)/C=C/c3ccccc3Br)C[C@H]2[C@H](O)/C=C/C(=O)O1 [Compound 4a, 7-O-(2-bromocinnamic acid)acyl BFA] | 100 to 1000 | 100 to 1000 | 100 to 1000 | 100 to 1000 | 100 to 1000 | 100 to 1000 | 100 to 1000 | 100 to 1000 |
| C[C@H]1CCC/C=C/[C@@H]2C[C@H](O)C[C@H]2[C@H](OC(=O)/C=C/c2ccccc2Br)/C=C/C(=O)O1 [Compound 4b, 4-O-(2-bromocinnamic acid)acyl BFA] | 100 to 1000 | 100 to 1000 | 100 to 1000 | 100 to 1000 | 100 to 1000 | 100 to 1000 | 100 to 1000 | 100 to 1000 |
| C[C@H]1CCC/C=C/[C@@H]2C[C@H](OC(=O)/C=C/c3ccccc3Br)C[C@H]2[C@H](OC(=O)/C=C/c2ccccc2Br)/C=C/C(=O)O1 [Compound 4c, 4,7-O-bis(2-bromocinnamic acid)acyl BFA] | 100 to 1000 | 1000 to 10000 | 1000 to 10000 | 100 to 1000 | 1000 to 10000 | 1000 to 10000 | 100 to 1000 | 1000 to 10000 |
| C[C@H]1CCC/C=C/[C@@H]2C[C@H](OC(=O)/C=C/c3cccc(Cl)c3)C[C@H]2[C@H](O)/C=C/C(=O)O1 [Compound 5a, 7-O-(3-chlorocinnamic acid)acyl BFA] | 100 to 1000 | 1000 to 10000 | 100 to 1000 | 100 to 1000 | 100 to 1000 | 100 to 1000 | 100 to 1000 | 100 to 1000 |
| C[C@H]1CCC/C=C/[C@@H]2C[C@H](O)C[C@H]2[C@H](OC(=O)/C=C/c2cccc(Cl)c2)/C=C/C(=O)O1 [Compound 5b, 4-O-(3-chlorocinnamic acid)acyl BFA] | 100 to 1000 | 100 to 1000 | 100 to 1000 | 100 to 1000 | 100 to 1000 | 100 to 1000 | 100 to 1000 | 100 to 1000 |
| C[C@H]1CCC/C=C/[C@@H]2C[C@H](OC(=O)/C=C/c3cccc(Cl)c3)C[C@H]2[C@H](OC(=O)/C=C/c2cccc(Cl)c2)/C=C/C(=O)O1 [Compound 5c, 4,7-O-bis(3-chlorocinnamic acid)acyl BFA] | 100 to 1000 | 1000 to 10000 | 1000 to 10000 | 100 to 1000 | 1000 to 10000 | 1000 to 10000 | 100 to 1000 | 1000 to 10000 |
| Cc1cccc(/C=C/C(=O)O[C@@H]2C[C@H]3[C@H](O)/C=C/C(=O)O[C@@H](C)CCC/C=C/[C@@H]3C2)c1 [Compound 6a, 7-O-(3-methylcinnamic acid)acyl BFA] | 1000 to 10000 | 100 to 1000 | 100 to 1000 | 100 to 1000 | 100 to 1000 | 1000 to 10000 | 100 to 1000 | 100 to 1000 |
| Cc1cccc(/C=C/C(=O)O[C@@H]2/C=C/C(=O)O[C@@H](C)CCC/C=C/[C@@H]3C[C@H](O)C[C@H]32)c1 [Compound 6b, 4-O-(3-methylcinnamic acid)acyl BFA] | 100 to 1000 | 100 to 1000 | 100 to 1000 | 100 to 1000 | 100 to 1000 | 100 to 1000 | 100 to 1000 | 100 to 1000 |
| Cc1cccc(/C=C/C(=O)O[C@@H]2C[C@@H]3[C@H](/C=C/CCC[C@H](C)OC(=O)/C=C/[C@H]3OC(=O)/C=C/c3cccc(C)c3)C2)c1 [Compound 6c, 4,7-O-bis(3-methylcinnamic acid)acyl BFA] | 1000 to 10000 | 100 to 1000 | 1000 to 10000 | 100 to 1000 | 1000 to 10000 | 1000 to 10000 | 1000 to 10000 | 1000 to 10000 |
| Cc1ccc(/C=C/C(=O)O[C@@H]2C[C@H]3[C@H](O)/C=C/C(=O)O[C@@H](C)CCC/C=C/[C@@H]3C2)cc1 [Compound 7a, 7-O-(4-methylcinnamic acid)acyl BFA] | 1000 to 10000 | 1000 to 10000 | 1000 to 10000 | 100 to 1000 | 1000 to 10000 | 1000 to 10000 | 100 to 1000 | 100 to 1000 |
| Cc1ccc(/C=C/C(=O)O[C@@H]2/C=C/C(=O)O[C@@H](C)CCC/C=C/[C@@H]3C[C@H](O)C[C@H]32)cc1 [Compound 7b, 4-O-(4-methylcinnamic acid)acyl BFA] | 1000 to 10000 | 100 to 1000 | 100 to 1000 | 100 to 1000 | 1000 to 10000 | 100 to 1000 | 100 to 1000 | 100 to 1000 |
| Cc1ccc(/C=C/C(=O)O[C@@H]2C[C@@H]3[C@H](/C=C/CCC[C@H](C)OC(=O)/C=C/[C@H]3OC(=O)/C=C/c3ccc(C)cc3)C2)cc1 [Compound 7c, 4,7-O-bis(4-methylcinnamic acid)acyl BFA] | 1000 to 10000 | 100 to 1000 | 1000 to 10000 | 100 to 1000 | 1000 to 10000 | 1000 to 10000 | 1000 to 10000 | 1000 to 10000 |
| Cc1ccccc1/C=C/C(=O)O[C@@H]1C[C@H]2[C@H](O)/C=C/C(=O)O[C@@H](C)CCC/C=C/[C@@H]2C1 [Compound 8a, 7-O-(2-methylcinnamic acid)acyl BFA] | 1000 to 10000 | 100 to 1000 | 100 to 1000 | 100 to 1000 | 1000 to 10000 | 1000 to 10000 | 100 to 1000 | 100 to 1000 |
| Cc1ccccc1/C=C/C(=O)O[C@@H]1/C=C/C(=O)O[C@@H](C)CCC/C=C/[C@@H]2C[C@H](O)C[C@H]21 [Compound 8b, 4-O-(2-methylcinnamic acid)acyl BFA] | 1000 to 10000 | 100 to 1000 | 100 to 1000 | 100 to 1000 | 1000 to 10000 | 100 to 1000 | 100 to 1000 | 100 to 1000 |
